Source: the supplement of paper PMC10307832

Columns and labels:
Test in all cases: relative viability (nuclei count vs DMSO), 5 days (fraction); higher = more cells survive
17-AAG + Dasatinib = compound: C=CCNC1=C2C[C@@H](C)C[C@H](OC)[C@H](O)[C@@H](C)/C=C(\C)[C@H](OC(N)=O)[C@@H](OC)/C=C\C=C(/C)C(=O)NC(=CC1=O)C2=O [17-AAG] + Cc1nc(Nc2ncc(C(=O)Nc3c(C)cccc3Cl)s2)cc(N2CCN(CCO)CC2)n1 [Dasatinib] (partner 0.075 µM)
Outline: (§1)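 Lung cancer cell lines were seeded in 1536-well plates and dosed by pin tool the next day, with either a single drug or a fixed anchor-drug dose combined with five library-drug doses (not always all listed) spaced in √10 steps. Five days later, one step fixed the cells and stained their nuclei (final 0.05% Triton X-100, 1% formaldehyde, 1 ug/ml Hoechst), and nuclei were counted on 4× images. Relative viability is the nuclei count in treated wells divided by the count in vehicle wells, and each value is the median of duplicate plates.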

17-AAG + Alpelisib = compound: C=CCNC1=C2C[C@@H](C)C[C@H](OC)[C@H](O)[C@@H](C)/C=C(\C)[C@H](OC(N)=O)[C@@H](OC)/C=C\C=C(/C)C(=O)NC(=CC1=O)C2=O [17-AAG] + Cc1nc(NC(=O)N2CCC[C@H]2C(N)=O)sc1-c1ccnc(C(C)(C)C(F)(F)F)c1 [Alpelisib] (partner 2 µM)
Outline: as §1

17-AAG + Bortezomib = compound: C=CCNC1=C2C[C@@H](C)C[C@H](OC)[C@H](O)[C@@H](C)/C=C(\C)[C@H](OC(N)=O)[C@@H](OC)/C=C\C=C(/C)C(=O)NC(=CC1=O)C2=O [17-AAG] + CC(C)C[C@H](NC(=O)[C@H](Cc1ccccc1)NC(=O)c1cnccn1)B(O)O [Bortezomib] (partner 0.002 µM)
Outline: as §1

17-AAG + Palbociclib = compound: C=CCNC1=C2C[C@@H](C)C[C@H](OC)[C@H](O)[C@@H](C)/C=C(\C)[C@H](OC(N)=O)[C@@H](OC)/C=C\C=C(/C)C(=O)NC(=CC1=O)C2=O [17-AAG] + CC(=O)c1c(C)c2cnc(Nc3ccc(N4CCNCC4)cn3)nc2n(C2CCCC2)c1=O [Palbociclib] (partner 0.5 µM)
Outline: as §1

Cell Line | relative viability (17-AAG + Dasatinib; first compound 0.00128 µM) | relative viability (17-AAG + Dasatinib; first compound 0.004048 µM) | relative viability (17-AAG + Dasatinib; first compound 0.0128 µM) | relative viability (17-AAG + Dasatinib; first compound 0.04048 µM) | relative viability (17-AAG + Dasatinib; first compound 0.128 µM) | relative viability (17-AAG + Alpelisib; first compound 0.00128 µM) | relative viability (17-AAG + Alpelisib; first compound 0.004048 µM) | relative viability (17-AAG + Alpelisib; first compound 0.0128 µM) | relative viability (17-AAG + Alpelisib; first compound 0.04048 µM) | relative viability (17-AAG + Alpelisib; first compound 0.128 µM) | relative viability (17-AAG + Bortezomib; first compound 0.00128 µM) | relative viability (17-AAG + Bortezomib; first compound 0.004048 µM) | relative viability (17-AAG + Bortezomib; first compound 0.0128 µM) | relative viability (17-AAG + Bortezomib; first compound 0.04048 µM) | relative viability (17-AAG + Bortezomib; first compound 0.128 µM) | relative viability (17-AAG + Palbociclib; first compound 0.00128 µM) | relative viability (17-AAG + Palbociclib; first compound 0.004048 µM) | relative viability (17-AAG + Palbociclib; first compound 0.0128 µM) | relative viability (17-AAG + Palbociclib; first compound 0.04048 µM) | relative viability (17-AAG + Palbociclib; first compound 0.128 µM)
RERF-LC-KJ | 0.742 | 0.833 | 0.276 | 0.266 | 0.248 | 0.957 | 0.829 | 0.759 | 0.291 | 0.277 | 1.17 | 1.17 | 0.888 | 0.288 | 0.303 | 1.11 | 1.07 | 0.857 | 0.472 | 0.219
NCI-H1993 | 0.548 | 0.607 | 0.344 | 0.387 | 0.344 | 0.722 | 0.657 | 0.658 | 0.528 | 0.434 | 1.04 | 1.25 | 0.609 | 0.454 | 0.369 | 0.704 | 0.622 | 0.813 | 0.373 | 0.296
NCI-H1915 | 0.29 | 0.322 | 0.218 | 0.115 | 0.0794 | 1.05 | 1.06 | 1.04 | 1.02 | 0.458 | 0.846 | 1.02 | 0.85 | 0.884 | 0.118 | 0.533 | 0.503 | 0.471 | 0.253 | 0.0774
SK-LU-1 | 0.154 | 0.0796 | 0.0621 | 0.0687 | 0.0526 | 0.961 | 0.327 | 0.188 | 0.237 | 0.165 | 0.976 | 0.903 | 0.311 | 0.238 | 0.197 | 0.441 | 0.469 | 0.295 | 0.272 | 0.204
LOU-NH91 | 0.535 | 0.421 | 0.359 | 0.295 | 0.273 | 0.66 | 0.592 | 0.532 | 0.446 | 0.34 | 0.483 | 0.512 | 0.394 | 0.401 | 0.381 | 0.537 | 0.51 | 0.463 | 0.349 | 0.394
NCI-H2405 | 0.195 | 0.173 | 0.167 | 0.128 | 0.149 | 0.942 | 0.695 | 0.221 | 0.233 | 0.16 | 1.04 | 1.03 | 1 | 0.675 | 0.217 | 0.541 | 0.525 | 0.364 | 0.219 | 0.174
NCI-H2126 | 0.596 | 0.515 | 0.202 | 0.22 | 0.243 | 0.757 | 0.792 | 0.742 | 0.714 | 0.303 | 1.09 | 1.1 | 0.993 | 1.06 | 0.255 | 0.358 | 0.375 | 0.364 | 0.344 | 0.349
HCC-827 | 0.332 | 0.39 | 0.253 |  | 0.32 | 1.03 | 1.05 | 0.997 |  | 0.899 | 0.962 | 0.995 | 1.04 |  | 0.849 | 0.47 | 0.463 | 0.499 |  | 0.325
NCI-H322M | 0.284 | 0.302 | 0.256 | 0.257 | 0.268 | 0.826 | 0.865 | 0.796 | 0.548 | 0.382 | 1.28 | 1.38 | 1.35 | 0.929 | 0.493 | 0.463 | 0.511 | 0.468 | 0.425 | 0.366
HOP-62 | 0.685 | 0.683 | 0.485 | 0.175 | 0.1 | 0.907 | 1.04 | 1.1 | 0.939 | 0.38 | 0.701 | 0.725 | 0.748 | 0.46 | 0.117 | 0.465 | 0.451 | 0.403 | 0.268 | 0.273
